# Measurements reported in ChEMBL document CHEMBL3132747, “Design and synthesis of a novel series of N,4-diphenylpyrimidin-2-amine derivatives as potent and selective PI3K inhibitors” (Medchemcomm, 2014).
# Assays:
# MCF7 = experiment: Anticancer activity against human MCF7 cells by MTT assay; format: functional, cell-based
# HepG2 = experiment: Anticancer activity against human HepG2 cells by MTT assay; format: functional, cell-based
# A549 [1] = experiment: Anticancer activity against human A549 cells by MTT assay; format: functional, cell-based
# HeLa = experiment: Anticancer activity against human HeLa cells by MTT assay; format: functional, cell-based
# [2] = molecular target: Phosphatidylinositol 4,5-bisphosphate 3-kinase catalytic subunit alpha isoform (Homo sapiens, UniProt P42336); experiment: Inhibition of human PI3Kalpha
# Sequence of Phosphatidylinositol 4,5-bisphosphate 3-kinase catalytic subunit alpha isoform (P42336 whole entry, canonical isoform): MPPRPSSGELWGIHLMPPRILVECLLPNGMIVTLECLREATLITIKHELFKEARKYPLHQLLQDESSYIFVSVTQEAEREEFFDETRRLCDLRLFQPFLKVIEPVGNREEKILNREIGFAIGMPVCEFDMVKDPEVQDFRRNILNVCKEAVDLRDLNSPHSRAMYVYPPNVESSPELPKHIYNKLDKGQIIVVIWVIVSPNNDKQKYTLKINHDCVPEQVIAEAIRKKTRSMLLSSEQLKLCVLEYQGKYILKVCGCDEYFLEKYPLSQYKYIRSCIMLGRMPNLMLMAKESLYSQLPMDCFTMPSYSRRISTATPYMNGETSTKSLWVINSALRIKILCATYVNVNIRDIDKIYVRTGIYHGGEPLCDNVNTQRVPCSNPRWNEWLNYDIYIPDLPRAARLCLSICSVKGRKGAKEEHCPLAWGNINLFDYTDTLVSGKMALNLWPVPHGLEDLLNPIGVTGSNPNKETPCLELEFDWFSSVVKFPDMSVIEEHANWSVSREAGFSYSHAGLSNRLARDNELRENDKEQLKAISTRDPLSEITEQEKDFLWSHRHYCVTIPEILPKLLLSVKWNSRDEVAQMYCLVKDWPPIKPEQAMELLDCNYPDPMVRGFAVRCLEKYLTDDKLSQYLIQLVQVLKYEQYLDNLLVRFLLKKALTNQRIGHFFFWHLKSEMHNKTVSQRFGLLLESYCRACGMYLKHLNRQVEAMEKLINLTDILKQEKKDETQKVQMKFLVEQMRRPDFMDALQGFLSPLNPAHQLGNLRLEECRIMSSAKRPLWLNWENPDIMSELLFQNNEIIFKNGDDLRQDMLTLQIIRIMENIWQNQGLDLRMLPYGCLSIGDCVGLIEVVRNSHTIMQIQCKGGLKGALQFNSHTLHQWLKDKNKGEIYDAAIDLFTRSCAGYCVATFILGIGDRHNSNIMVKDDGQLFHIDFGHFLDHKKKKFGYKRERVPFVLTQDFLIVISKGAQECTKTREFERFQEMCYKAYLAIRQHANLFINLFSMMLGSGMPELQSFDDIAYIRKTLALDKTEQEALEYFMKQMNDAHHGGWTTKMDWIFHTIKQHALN
# [3] = molecular target: Phosphatidylinositol 4,5-bisphosphate 3-kinase catalytic subunit gamma isoform (Homo sapiens, UniProt P48736); experiment: Inhibition of human PI3Kgamma
# Sequence of Phosphatidylinositol 4,5-bisphosphate 3-kinase catalytic subunit gamma isoform (P48736 whole entry, canonical isoform): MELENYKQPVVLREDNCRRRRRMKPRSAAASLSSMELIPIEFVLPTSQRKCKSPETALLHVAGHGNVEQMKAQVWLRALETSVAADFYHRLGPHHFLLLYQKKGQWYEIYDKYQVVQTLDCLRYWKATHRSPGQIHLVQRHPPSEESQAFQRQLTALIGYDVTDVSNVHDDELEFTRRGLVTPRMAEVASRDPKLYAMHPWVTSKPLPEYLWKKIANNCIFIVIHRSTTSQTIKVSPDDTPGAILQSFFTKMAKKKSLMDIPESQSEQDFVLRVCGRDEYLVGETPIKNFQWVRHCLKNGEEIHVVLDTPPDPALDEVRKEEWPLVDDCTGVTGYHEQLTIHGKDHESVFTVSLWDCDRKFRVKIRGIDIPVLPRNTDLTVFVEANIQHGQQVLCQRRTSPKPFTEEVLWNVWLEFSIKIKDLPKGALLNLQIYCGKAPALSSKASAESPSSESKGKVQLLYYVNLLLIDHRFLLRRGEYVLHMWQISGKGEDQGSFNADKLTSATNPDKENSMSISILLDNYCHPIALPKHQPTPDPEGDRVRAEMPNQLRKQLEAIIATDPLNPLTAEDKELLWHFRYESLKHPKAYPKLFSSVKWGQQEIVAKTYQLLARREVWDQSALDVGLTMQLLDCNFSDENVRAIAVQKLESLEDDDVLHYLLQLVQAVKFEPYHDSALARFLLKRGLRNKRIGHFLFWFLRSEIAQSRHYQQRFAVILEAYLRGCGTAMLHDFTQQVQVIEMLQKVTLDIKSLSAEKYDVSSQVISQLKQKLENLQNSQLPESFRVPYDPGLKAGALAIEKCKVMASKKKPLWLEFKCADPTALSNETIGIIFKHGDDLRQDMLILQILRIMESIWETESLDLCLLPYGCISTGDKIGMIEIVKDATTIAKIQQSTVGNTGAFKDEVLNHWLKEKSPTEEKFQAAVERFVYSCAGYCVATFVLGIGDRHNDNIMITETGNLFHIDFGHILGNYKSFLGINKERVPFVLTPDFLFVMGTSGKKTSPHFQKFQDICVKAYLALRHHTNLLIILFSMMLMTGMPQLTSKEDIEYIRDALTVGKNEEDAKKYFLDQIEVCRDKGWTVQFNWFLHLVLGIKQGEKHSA
# [4] = molecular target: Phosphatidylinositol 4,5-bisphosphate 3-kinase catalytic subunit beta isoform (Homo sapiens, UniProt P42338); experiment: Inhibition of human PI3Kbeta
# Sequence of Phosphatidylinositol 4,5-bisphosphate 3-kinase catalytic subunit beta isoform (P42338 whole entry, canonical isoform): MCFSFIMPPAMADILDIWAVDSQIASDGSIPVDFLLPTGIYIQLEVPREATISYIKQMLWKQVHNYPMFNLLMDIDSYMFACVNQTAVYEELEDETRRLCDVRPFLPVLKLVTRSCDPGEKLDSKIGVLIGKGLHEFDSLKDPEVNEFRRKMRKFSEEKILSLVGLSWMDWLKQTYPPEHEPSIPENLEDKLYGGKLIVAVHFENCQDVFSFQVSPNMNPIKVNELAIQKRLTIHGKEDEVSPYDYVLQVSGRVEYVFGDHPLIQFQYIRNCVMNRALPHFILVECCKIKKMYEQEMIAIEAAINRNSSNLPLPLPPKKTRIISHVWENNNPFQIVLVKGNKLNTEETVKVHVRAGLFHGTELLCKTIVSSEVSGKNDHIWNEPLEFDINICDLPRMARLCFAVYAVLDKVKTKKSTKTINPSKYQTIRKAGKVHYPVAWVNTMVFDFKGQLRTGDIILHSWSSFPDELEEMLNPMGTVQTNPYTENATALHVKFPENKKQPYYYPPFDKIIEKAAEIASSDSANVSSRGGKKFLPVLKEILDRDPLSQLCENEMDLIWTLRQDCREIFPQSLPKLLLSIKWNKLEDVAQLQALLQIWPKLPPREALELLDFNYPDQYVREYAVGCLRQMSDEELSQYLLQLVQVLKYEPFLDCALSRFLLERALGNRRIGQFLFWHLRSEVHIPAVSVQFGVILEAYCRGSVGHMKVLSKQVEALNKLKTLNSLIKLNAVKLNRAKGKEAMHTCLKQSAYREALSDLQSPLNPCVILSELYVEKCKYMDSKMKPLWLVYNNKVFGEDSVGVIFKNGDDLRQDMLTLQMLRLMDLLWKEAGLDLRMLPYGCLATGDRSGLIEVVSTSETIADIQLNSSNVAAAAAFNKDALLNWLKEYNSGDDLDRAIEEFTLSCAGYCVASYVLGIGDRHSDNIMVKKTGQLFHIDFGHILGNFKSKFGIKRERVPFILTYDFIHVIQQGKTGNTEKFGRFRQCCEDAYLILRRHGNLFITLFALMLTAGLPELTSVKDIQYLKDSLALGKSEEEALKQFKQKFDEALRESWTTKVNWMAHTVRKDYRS
# A549 [5] = experiment: Induction of apoptosis in human A549 cells assessed as late apoptotic cells at 4 uM after 48 hrs using annexin V and propidium iodide staining by flow cytometry (reference value: 9.79 %); format: functional
# A549 [6] = experiment: Induction of apoptosis in human A549 cells assessed as apoptotic cells at 16 uM after 48 hrs using annexin V and propidium iodide staining by flow cytometry (reference value: 5.37 %); format: functional
# A549 [7] = experiment: Induction of apoptosis in human A549 cells assessed as late necrotic cells at 1 uM after 48 hrs using annexin V and propidium iodide staining by flow cytometry (reference value: 6.00 %); format: functional
# [8] = molecular target: Epidermal growth factor receptor (Homo sapiens, UniProt P00533); experiment: Inhibition of EGFR (unknown origin)
# Sequence of Epidermal growth factor receptor (P00533 whole entry): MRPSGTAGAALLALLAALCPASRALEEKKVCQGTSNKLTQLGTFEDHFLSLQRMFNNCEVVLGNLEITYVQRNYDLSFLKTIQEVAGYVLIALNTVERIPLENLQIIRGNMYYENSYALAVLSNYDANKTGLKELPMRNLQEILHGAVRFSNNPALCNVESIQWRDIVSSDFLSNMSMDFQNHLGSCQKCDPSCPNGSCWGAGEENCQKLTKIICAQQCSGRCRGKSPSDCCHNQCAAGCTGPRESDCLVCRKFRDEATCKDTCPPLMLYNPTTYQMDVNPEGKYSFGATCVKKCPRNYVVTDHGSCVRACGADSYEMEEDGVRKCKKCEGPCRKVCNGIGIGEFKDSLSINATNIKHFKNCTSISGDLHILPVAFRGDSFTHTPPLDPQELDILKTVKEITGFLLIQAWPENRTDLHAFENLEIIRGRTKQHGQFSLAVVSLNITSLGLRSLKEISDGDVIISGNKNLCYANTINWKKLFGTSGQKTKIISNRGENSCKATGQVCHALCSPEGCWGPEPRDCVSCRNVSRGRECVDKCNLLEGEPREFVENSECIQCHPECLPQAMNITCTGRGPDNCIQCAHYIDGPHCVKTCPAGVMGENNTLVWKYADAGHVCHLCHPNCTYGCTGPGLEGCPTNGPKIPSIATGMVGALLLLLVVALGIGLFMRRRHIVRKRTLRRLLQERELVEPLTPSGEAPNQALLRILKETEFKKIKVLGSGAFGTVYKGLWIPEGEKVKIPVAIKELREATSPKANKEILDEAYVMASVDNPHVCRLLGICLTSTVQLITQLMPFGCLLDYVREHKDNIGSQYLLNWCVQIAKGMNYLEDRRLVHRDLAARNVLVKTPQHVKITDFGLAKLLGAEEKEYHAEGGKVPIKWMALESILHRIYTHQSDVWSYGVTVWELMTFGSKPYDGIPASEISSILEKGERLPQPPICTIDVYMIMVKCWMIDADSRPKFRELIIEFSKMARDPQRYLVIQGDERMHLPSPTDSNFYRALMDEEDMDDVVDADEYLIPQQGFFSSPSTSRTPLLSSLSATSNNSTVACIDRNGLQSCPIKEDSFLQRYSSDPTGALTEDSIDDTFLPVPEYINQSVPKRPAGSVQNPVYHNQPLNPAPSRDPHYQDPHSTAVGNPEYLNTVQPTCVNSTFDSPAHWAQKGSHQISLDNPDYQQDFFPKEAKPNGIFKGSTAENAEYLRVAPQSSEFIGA
# A549 [9] = experiment: Induction of apoptosis in human A549 cells assessed as late necrotic cells at 4 uM after 48 hrs using annexin V and propidium iodide staining by flow cytometry (reference value: 6.00 %); format: functional
# A549 [10] = experiment: Induction of apoptosis in human A549 cells assessed as viable cells at 1 uM after 48 hrs using annexin V and propidium iodide staining by flow cytometry (reference value: 78.8 %); format: functional; conditions: A549, 48 h, read-out: Activity
# A549 [11] = experiment: Induction of apoptosis in human A549 cells assessed as late apoptotic cells at 1 uM after 48 hrs using annexin V and propidium iodide staining by flow cytometry (reference value: 9.79 %); format: functional
# A549 [12] = experiment: Induction of apoptosis in human A549 cells assessed as viable cells at 16 uM after 48 hrs using annexin V and propidium iodide staining by flow cytometry (reference value: 78.8 %); format: functional; conditions: A549, 48 h, read-out: Activity
# A549 [13] = experiment: Induction of apoptosis in human A549 cells assessed as late apoptotic cells at 16 uM after 48 hrs using annexin V and propidium iodide staining by flow cytometry (reference value: 9.79 %); format: functional
# A549 [14] = experiment: Induction of apoptosis in human A549 cells assessed as apoptotic cells at 1 uM after 48 hrs using annexin V and propidium iodide staining by flow cytometry (reference value: 5.37 %); format: functional
# [15] = molecular target: Tyrosine-protein kinase JAK2 (Homo sapiens, UniProt O60674); experiment: Inhibition of JAK2 (unknown origin)
# A549 [16] = experiment: Induction of apoptosis in human A549 cells assessed as late necrotic cells at 16 uM after 48 hrs using annexin V and propidium iodide staining by flow cytometry (reference value: 6.00 %); format: functional
# A549 [17] = experiment: Induction of apoptosis in human A549 cells assessed as apoptotic cells at 4 uM after 48 hrs using annexin V and propidium iodide staining by flow cytometry (reference value: 5.37 %); format: functional
# [18] = molecular target: Cyclin-dependent kinase 2 (Homo sapiens, UniProt P24941); experiment: Inhibition of CDK2 (unknown origin)
# A549 [19] = experiment: Induction of apoptosis in human A549 cells assessed as viable cells at 4 uM after 48 hrs using annexin V and propidium iodide staining by flow cytometry (reference value: 78.8 %); format: functional; conditions: A549, 48 h, read-out: Activity
SMILES,IC50 (MCF7) [µM],IC50 (HepG2) [µM],IC50 (A549 [1]) [µM],IC50 (HeLa) [µM],IC50 [2] [µM],IC50 ([3]; read-out: IC50) [µM],IC50 ([3]; read-out: pIC50 (converted)) [µM],IC50 [4] [µM],other results
Nc1nc(N)c2nc(-c3cccc(O)c3)cnc2n1,1.03,0.82,0.49,0.15,–,–,–,–,–
Cc1cccc(Nc2nccc(-c3ccc(Cl)cc3Cl)n2)c1,249,13.2,18.4,7.66,0.813,0.274,0.274,0.851,–
COc1cccc(Nc2nccc(-c3ccc(Cl)cc3Cl)n2)c1,192,96.9,32.2,76.4,0.851,0.278,0.278,0.893,–
Clc1ccc(Nc2nccc(-c3ccc(Cl)cc3Cl)n2)c(Cl)c1,3.18,8.08,11.6,1.56,0.772,0.268,0.268,0.799,–
COc1ccc(-c2ccnc(Nc3ccc(Cl)cc3Cl)n2)cc1,4.17,0.19,7.33,23,0.738,0.235,0.235,0.839,–
Cc1ccc(-c2ccnc(Nc3ccc(Cl)cc3Cl)n2)cc1,> 1000,344,164,91.5,> 1,0.371,0.371,> 1,–
COc1cc(Nc2nccc(-c3ccc(Cl)cc3)n2)cc(OC)c1OC,3.15,0.09,0.36,0.29,0.341,≤ 0.065,–,0.373,Activity (A549 [5]): 32.8%; Activity (A549 [6]): 13.5%; Activity (A549 [7]): 3.66%; IC50 [8]: 2.15 µM; Activity (A549 [9]): 4.62%; viability at 1 µM (A549 [10]): 62.9%; Activity (A549 [11]): 25%; viability at 16 µM (A549 [12]): 44.9%; Activity (A549 [13]): 39.4%; Activity (A549 [14]): 8.47%; IC50 [15]: 21.5 µM; Activity (A549 [16]): 2.19%; Activity (A549 [17]): 6.53%; IC50 [18]: 18.8 µM; viability at 4 µM (A549 [19]): 56.1%
Clc1ccc(Nc2nccc(-c3ccc(Br)cc3)n2)c(Cl)c1,2.49,0.72,3.78,1.08,0.591,0.231,0.231,0.673,–
COc1cccc(Nc2nccc(-c3ccc(Cl)c(Cl)c3)n2)c1,21,3.37,6,4.97,0.625,0.217,0.217,0.741,–
Clc1ccc(Nc2nccc(-c3ccc(Cl)c(Cl)c3)n2)c(Cl)c1,45.6,28.4,26,23,0.836,0.25,0.25,0.926,–

# Now from value to molecule, other results behind:
IC50 (MCF7) [µM],IC50 (HepG2) [µM],IC50 (A549 [1]) [µM],IC50 (HeLa) [µM],IC50 [2] [µM],IC50 ([3]; read-out: IC50) [µM],IC50 ([3]; read-out: pIC50 (converted)) [µM],IC50 [4] [µM],SMILES,other results
192,99.3,119,168,0.953,0.386,0.386,0.938,O=[N+]([O-])c1ccc(Nc2nccc(-c3ccc(Cl)cc3Cl)n2)cc1,–
3.45,13.9,6.53,0.55,0.615,0.195,0.195,0.729,COc1ccc(-c2ccnc(Nc3cccc(OC)c3)n2)cc1,–
0.81,4.5,20.9,0.31,0.552,0.167,0.167,0.603,COc1ccc(-c2ccnc(Nc3ccc(Cl)cc3)n2)cc1,–
0.77,1.04,2.73,0.98,0.527,0.143,0.143,0.537,COc1ccc(-c2ccnc(Nc3ccc([N+](=O)[O-])cc3)n2)cc1,–
412,128,35.9,145,0.88,0.334,0.334,> 1,COc1cccc(Nc2nccc(-c3ccc(F)cc3)n2)c1,–
0.4,7.95,84,3.51,0.679,0.247,0.247,0.863,O=[N+]([O-])c1ccc(Nc2nccc(-c3ccc(F)cc3)n2)cc1,–
210,74.6,63.2,71,0.894,0.342,0.342,> 1,Cc1cccc(Nc2nccc(-c3ccc(Br)cc3)n2)c1,–
278,148,82.7,153,> 1,0.357,0.357,0.977,COc1cccc(Nc2nccc(-c3ccc(Br)cc3)n2)c1,–
111,7.03,3.71,11.5,0.792,0.313,0.313,0.874,CC(C)c1ccccc1Nc1nccc(-c2ccc(Br)cc2)n1,–
4.18,47.5,6.11,36.7,0.914,0.302,0.302,0.946,Clc1ccc(Nc2nccc(-c3ccc(Br)cc3)n2)cc1,–
681,43,76,25.7,0.946,0.265,0.265,0.961,O=[N+]([O-])c1ccc(Nc2nccc(-c3ccc(Br)cc3)n2)cc1,–
3.51,0.5,0.72,1.84,0.503,0.154,0.154,0.573,O=[N+]([O-])c1ccc(Nc2nccc(-c3ccc(Cl)c(Cl)c3)n2)cc1,–
